# Tests used:
# collagen arthritis model = details: Peacock D J., J. Exp. Med. 175, 1135-8, 1992; cited from earlier work
# [1] = Safety of VD1207 analogues, intraperitoneal administration over 4 days; assay type: in vivo; parameters: key to Blood (WBC) / Blood (PLAT) / Biochemistry (UN) / Biochemistry (GPT) / Weight (liver) / Weight (kidney) / Weight (lung) / Weight (spleen) / Body weight / Blood (RBC): —: “-” indicates no abnormality; “↑” and “↓” indicate an increase and a decrease, respectively; “↑” and “↓” indicate an increase and a decrease, respectively
# Protocol: Each of VD1207B, C, D, E, F and G2 was continuously administered intraperitoneally at each dose of 1 mg/kg and 2 mg/kg over 4 days to examine the safety of VD1207 analogues.
# [2] = Solubility (analysis data); assay type: physicochemical
# [3] = system: angiogenesis induced by human colorectal cancer (WiDr cells); assay: Antiangiogenic effect in vivo: chamber with WiDr cells transplanted to mouse, 51Cr-labeled erythrocytes; details: 1 mg/kg intraperitoneally once a day for 4 days
# Protocol: Whether angiogenesis induced by human colorectal cancer (WiDr cells) was inhibited by administering VD1207C or not was studied to examine the antiangiogenic effect of VD1207C in vivo.
# A chamber in which the WiDr cells were sealed was transplanted to a mouse. Then VD1207C was administered intraperitoneally at each dose of 0.5, 1.0 and 2.0 mg/kg for 4 days once a day. The amount of angiogenesis induced by the tumor was measured quantitatively by measuring the radiao activity in the skin touching with the chamber as the amount of blood by statically injecting erythrocytes labeled by ^51Cr. In FIG. 1, vascular volume generated at each dose of VD1207C is shown.
# [4] = system: Endothelial cells derived from human umbilical vein (HUVEC); assay: Inhibitory effect of growth of endothelial cells (MTT method); assay type: cell-based; details: three days, listed as C
# Protocol: Endothelial cells derived from human umbilical vein (HUVEC; manufactured by Sanko Junyaku) incubated in an EGM medium (manufactured by Sanko Junyaku) were adjusted to 1×10^4 cells/ml and each 100 μl were separately placed on a 96-well plate. After incubating overnight, 100 μl of medium containing sample were added thereto followed by incubating for three days. The cell numbers at that time were measured by MTT method. That is, 50 μl of PBS solution containing 0.33% of 3-(4,5-dimethylthiazol-2-yl)-2,5-diphenyltetrazolium bromide (MTT) was added thereto and incubation was continued for further 3-4 hours. After the supernatant liquid of the culture was removed, 100 μl of DMSO was added to dissolve a formazane which was formed in the cells and the absorbance at the wave length of 460 nm was measured by use of plate reader. The IC50 value is defined as a concentration that the absorbance was 50% of that observed when no sample was added.
# E-selectin = assay: Inhibition of TNFα-induced expression of adhesion molecule E-selectin on endothelial cells; assay type: cell-based, human; details: HUVEC, TNFα 1 ng/ml, 4 hours; listed as C
# Protocol: (§1) Endothelial cells derived from human umbilical vein (HUVEC) were cultured on a 96-well plate until they were fallen in a confluent state. The culture broth was removed. After 150 μl of a new culture broth was added to each well, 20 μl of a sample solution was added thereto. After 15 minutes, 30 μl of TNFα was added such that the final concentration became 1 ng/ml and it was incubated at 37° C. for 4 hours in a 5% CO2 incubator. Next, the culture broth was removed and the cells were washed twice with a phosphate buffer (PBS). Further, a PBS solution containing 0.025% glutaraldehyde was added and the well was allowed to stand at room temperature for 6 minutes to fix the cells. After the cells were immobilized, they were washed twice with 200 μl of phosphate buffer (PBSA) containing 0.25% BSA. Thereafter 100 μl of a PBSA solution containing 1 μg/ml of mouse anti-human VCAM-1 (R&D systems) or a mouse anti-human E-selectin antibody (R&D systems) was added to each well. The well was allowed to stand at room temperature for 30 minutes and then the cells were again washed. A PBSA solution containing 100 μl of peroxidase-conjugated goat anti-mouse antibody (Cosmo Bio Co., Ltd.) was added to the well. Then the well was allowed to stand at room temperature for 30 minutes and thereafter the cells were washed. In succession, 100 μl of 3,3*,5,5*-tetramethylbenzyidine (TMB) substrate solution was added to develop a color. Next, the coloring was stopped by 100 μl of 1M phosphoric acid to measure the absorbance at 450 nm.
# aorta pieces of rat = assay: Inhibition of capillary formation in rat aorta model (aorta pieces cultured in collagen gel); assay type: cell-based; details: 7th day from addition of sample, listed as C
# Protocol: In a method of screening the antiangiogenic effect, the degree of inhibition to the formation of lumens observed when an aortic fragment of a rat is cultured in a collagen gel was selected as an indicator (Nicosia R. F., Lab. Invest., 63, 115, 1990). Also, for the purpose of analyzing the mechanism of action of the antiangiogenic effect of the resulting compound, measurements were made concerning the effect of inhibiting the growth of endothelial cells by using endothelial cells derived from the human umbilical cord vein and the effect of inhibiting the expression of an adhesion molecules on endothelial cells.
# The antiangiogenic potency was evaluated by the inhibition of capillary formation in rat aorta model in which aorta pieces of rat were cultured in collagen gel. That is, the aorta excised from male rat of Sprague-Dawley strain (8-12 weeks age) was washed with a Hanks' solution so that fat tissues around there were removed minutely. The aorta was incised to prepare pieces of 2 mm square and they were allowed to stand in a 24-well plate holding the endothelial cells upside. Then, 500 μl of neutralized Type I collagen (Cell Matrix Type I-A; manufactured by Nitta Gelatin) were poured over each well and allowed to stand at room temperature for about 20 minutes in a clean bench to solidify the gel. After gelling, 500 μl of MCDB 131 medium (manufactured by Chlorella Kogyo) were added thereto followed by incubating in a Co2 incubator (5% CO2) at 37° C. On the next day, the culture medium was exchanged with 500 μl of MCDB 131 medium containing the sample and the incubation was continued. And, at the stage of the 7th day from the addition of the sample, numbers of capillaries formed around the aorta were counted. The IC50 value of each sample is defined as a concentration that the number of blood capillaries is 50% of that observed when no sample was added.
# VCAM-1 = assay: Inhibition of TNFα-induced expression of adhesion molecule VCAM-1 on endothelial cells; assay type: cell-based, human; details: HUVEC, TNFα 1 ng/ml, 4 hours; listed as C
# Protocol: as §1
# [5] = system: mouse colon cancer (Colon 38-OT-7); assay: Anti-metastatic effect: hepatic metastasis of mouse colon cancer transplanted to caecum; assay type: in vivo; details: for Toxic death: n 8
# Protocol: The mouse colon cancer (Colon 38-OT-7) having a high incidence of the hepatic metastasis was transplanted to the mouse caecum. Then VD1207C was administered intraperitoneallyat each dose of 0.5, 1.0 and 2.0 mg/kg once a day since 12 days after the transplantation.
# [6] = 1 mg/kg i.p. 4 days, listed as C
# [7] = 2 mg/kg i.p. 4 days, listed as C
compound,measurement,setting,value
CO[C@@H]1[C@H](OC(=O)NC(=O)CCl)CC[C@]2(CO2)[C@H]1[C@@]1(C)O[C@@H]1CC=C(C)C [AGM-470],Arthritis in a collagen arthritis model,collagen arthritis model,inhibits arthritis
"CCCC(C(=O)c1cc(C(OC)C(C)C)c(O)c(C=O)c1O)C1CC(O)C2(OC2CC)C(O)O1 (single isomer, unassigned) [VD1207 C]","Weight of each of the liver, kidney and lung (autoptic findings)",[1]; 1 mg/kg and 2 mg/kg i.p. 4 days,increase
same,Biochemistry (GPT),[1]; 1 mg/kg i.p. 4 days,—
same,Biochemistry (UN),[1]; 1 mg/kg i.p. 4 days,—
same,Blood (PLAT),[1]; 1 mg/kg i.p. 4 days,—
same,Blood (RBC),[1]; 1 mg/kg i.p. 4 days,—
same,Blood (WBC),[1]; 1 mg/kg i.p. 4 days,—
same,Body weight,[1]; 1 mg/kg i.p. 4 days,—
same,Change in weight (FIGS. 2a and 2b),[1]; 1 mg/kg i.p. 4 days,inhibition to an increase in weight
same,Weight (liver),[1]; 1 mg/kg i.p. 4 days,↑
same,Weight (spleen),[1]; 1 mg/kg i.p. 4 days,—
same,Weight (kidney),[1]; [6],↑
same,Weight (lung),[1]; [6],↑
same,Change in weight (FIGS. 2a and 2b),[1]; 2 mg/kg i.p. 4 days,reduction in weight
same,Blood (PLAT),[1]; [7],↓
same,Body weight,[1]; [7],↓
same,Weight (kidney),[1]; [7],↑
same,Weight (lung),[1]; [7],↑
same,"Solubility in ethyl acetate, chloroform and dimethyl sulfoxide",[2],soluble
same,Solubility in neutral water,[2],insoluble
same,Angiogenesis induced by WiDr cells (vascular volume),[3],inhibited with a significant difference
same,"IC50 (growth of endothelial cells, absorbance 50% of no sample)",[4],0.08 µg/mL
same,E-select (IC50 of expression),E-selectin,1.23 µg/mL
same,IC50 (number of blood capillaries 50% of that without sample),aorta pieces of rat,0.050 µg/mL
same,VCAM-1 (IC50 of expression),VCAM-1,0.85 µg/mL
same,Hepatic metastasis incidence,[5]; 0.5 mg/kg i.p. once a day,5/7
same,No. of metastatic nodules (mean ± STD),[5]; 0.5 mg/kg i.p. once a day,(9.7 ± 12.2)
same,"No. of metastatic nodules, median",[5]; 0.5 mg/kg i.p. once a day,1.0
same,Toxic death,[5]; 0.5 mg/kg i.p. once a day,1
same,Hepatic metastasis incidence,[5]; 1.0 mg/kg i.p. once a day,3/6
same,No. of metastatic nodules (mean ± STD),[5]; 1.0 mg/kg i.p. once a day,(1.2 ± 1.6)
same,"No. of metastatic nodules, median",[5]; 1.0 mg/kg i.p. once a day,0.5
same,Toxic death,[5]; 1.0 mg/kg i.p. once a day,2
same,Hepatic metastasis incidence,[5]; 2.0 mg/kg i.p. once a day,0/5
same,No. of metastatic nodules (individual animals),[5]; 2.0 mg/kg i.p. once a day,no metastatic nodules was observed at all
same,"No. of metastatic nodules, median",[5]; 2.0 mg/kg i.p. once a day,0
same,Toxic death,[5]; 2.0 mg/kg i.p. once a day,3
same,Number of the metastatic nodules,[5]; dose ranging from 0.5 mg/kg,decreased the number of the metastatic nodules
